Patent publication US9192554B2, “Use of chicoric acid and lactic bacterium in food supplement for regulating skin pigmentation” (Nestec S.A., priority 2010, dated 2015)

System: B16 murine melanocytes
Experiment: Production of melanin by B16 murine melanocyte cell line
Assay type: cell-based
Details: 72 hours, Kojic acid at 400 μg/mL
Protocol: In order to evaluate the potential beneficial effect of ingredients towards skin de- or pro-pigmentation we used 2D culture of murine melanocytes (B16) and we performed 2 tests: 1-assessment of melanin production and 2-assessment of tyrosinase production. 1. The Cell Culture Conditions. • B16 cells were cultured in DMEM 1 g/L glucose without phenol red supplemented with 10% foetal calf serum, in a humidified chamber at 37° C. and containing 5% CO2. 2. The Production of Melanin by B16 Murine Melanocyte Cell Line. • Cells were incubated with the selected ingredients or the test references (Kojic acid at 400 μg/mL) for 72 hours, in the presence or absence of NDP-MSH an analog of MSH. The total quantity of melanin (extracellular and intracellular) was evaluated by measurement of the optical density at 405 nm of each sample against melanin standards in presence or in absence of NDP-MSH. Chicoric acid has been pre-treated with La-1 [(spray dried culture Lactobacillus Johnsonii CNCM I-1225, 1.19E10 cfu/g) for 24 hours in a thermomixer at 40° C., under shaking conditions. After incubation, samples have been centrifuged 5 minutes at 3000 g. After this treatment the probiotic as such is not present anymore in the sample however the presence of its metabolites can't be excluded.

With `O=c1cc(CO)occ1O` [Kojic acid] the “Melanin content (effect in words)” value was “decrease in melanin content”.
